Data as given in US20210380548A1, “Fused [1,2,4]Thiadiazine Derivatives Which Act as KAT Inhibitors of the MYST Family” (CTxT Pty Limited, priority 2017, published 2021).
pIC50: −log10 of the molar value.

How the values were obtained:
[1] = target: T1, MOZ-KAT6A (Homo sapiens, UniProt Q92794, A567V); test: Acetyltransferase biochemical assay (AlphaScreen), KAT6A; settings: Table 2 (MOZ-KAT6A); 10 μM Acetyl coenzyme A, histone H3.1, 5 nM enzyme
T1 construct: encoding amino acid residues 507 to 778 (Uniprot Q92794-1) of human KAT6A; made in house; host or cells: E. coli BL21 DE3

[2] = target: T2, TIP60-KAT5 (Homo sapiens, UniProt Q92993); test: Revised Acetyltransferase Biochemical Assay, KAT5; settings: 10 nM KAT5, 1 μM AcCoA, 100 nM histone H4, 90 min
T2 construct: encoding amino acid residues 2 to 461 (Uniprot Q92993-2) of human KAT5 isoform; made in house; host or cells: E. coli BL21 DE3

[3] = target: T1, MOZ-KAT6A; test: Revised Acetyltransferase Biochemical Assay, KAT6A; settings: Table 8 (MOZ-KAT6A), 1 μM Acetyl coenzyme A
[4] = target: T2, TIP60-KAT5; test: Acetyltransferase biochemical assay (AlphaScreen), KAT5; settings: Table 1 (TIP60-KAT5); 0.4 μM Acetyl coenzyme A, histone H4, 10 nM enzyme
[5] = target: T3, HBO-KAT7 (Homo sapiens, UniProt O95251); test: Acetyltransferase biochemical assay (AlphaScreen), KAT7; settings: Table 3 (HBO-KAT7); 0.4 μM Acetyl coenzyme A, histone H3.1, 40 nM enzyme
T3 construct: encoding amino acid residues 325 to 611 (Uniprot 095251-1) of human KAT7; made in house; host or cells: E. coli BL21 DE3 RIL

[6] = target: T3, HBO-KAT7; test: Revised Acetyltransferase Biochemical Assay, KAT7; settings: Table 9 (HBO-KAT7), 1 μM Acetyl coenzyme A

T3 sequence (O95251 with tags, fused parts or gaps): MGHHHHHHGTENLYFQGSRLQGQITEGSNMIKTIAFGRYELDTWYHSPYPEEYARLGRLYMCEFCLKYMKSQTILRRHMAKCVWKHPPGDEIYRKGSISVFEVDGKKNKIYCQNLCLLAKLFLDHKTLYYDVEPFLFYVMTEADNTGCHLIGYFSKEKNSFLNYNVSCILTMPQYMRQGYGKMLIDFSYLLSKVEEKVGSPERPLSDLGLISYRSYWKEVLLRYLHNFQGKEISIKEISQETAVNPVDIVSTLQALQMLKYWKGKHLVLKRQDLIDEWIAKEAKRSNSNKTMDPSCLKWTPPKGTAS
T2 sequence (Q92993 2-461 isoform Q92993-2): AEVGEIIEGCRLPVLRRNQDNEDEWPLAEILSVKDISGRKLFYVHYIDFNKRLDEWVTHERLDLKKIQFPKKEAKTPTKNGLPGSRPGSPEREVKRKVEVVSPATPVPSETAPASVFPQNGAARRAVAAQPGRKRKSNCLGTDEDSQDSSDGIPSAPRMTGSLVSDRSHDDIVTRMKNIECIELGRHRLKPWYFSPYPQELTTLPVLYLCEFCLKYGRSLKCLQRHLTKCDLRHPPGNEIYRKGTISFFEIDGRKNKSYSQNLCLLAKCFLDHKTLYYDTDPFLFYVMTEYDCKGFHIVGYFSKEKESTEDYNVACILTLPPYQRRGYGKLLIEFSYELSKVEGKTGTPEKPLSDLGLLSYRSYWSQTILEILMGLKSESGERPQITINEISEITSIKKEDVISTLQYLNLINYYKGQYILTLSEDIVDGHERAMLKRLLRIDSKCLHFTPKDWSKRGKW
T1 sequence (Q92794 507-778 A567V limits assumed): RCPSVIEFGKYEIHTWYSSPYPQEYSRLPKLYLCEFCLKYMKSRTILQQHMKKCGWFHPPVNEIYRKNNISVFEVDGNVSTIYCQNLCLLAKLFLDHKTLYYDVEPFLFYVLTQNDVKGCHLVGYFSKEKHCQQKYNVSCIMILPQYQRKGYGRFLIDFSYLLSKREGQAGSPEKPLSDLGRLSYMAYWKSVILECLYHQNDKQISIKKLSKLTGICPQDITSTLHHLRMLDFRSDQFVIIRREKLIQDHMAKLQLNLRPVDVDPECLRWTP

| SMILES | pIC50 [1] | pIC50 [2] | pIC50 [3] | pIC50 [4] | pIC50 [5] | pIC50 [6] |
| --- | --- | --- | --- | --- | --- | --- |
| O=C(NCC(c1ccccc1)c1ncco1)C1=Nc2ccc(F)cc2S(=O)(=O)N1 (single isomer, unassigned) [Example 145] | 5.43 | 5.13 | 6.19 | 4.72 | – | – |
| O=C(NCC(c1ccccc1)c1ncco1)C1=Nc2ccc(O)cc2S(=O)(=O)N1 (single isomer, unassigned) [Example 148] | 5.27 | – | – | 4.34 | – | – |
| O=C(NCC(c1ccccc1)c1ncco1)C1=Nc2ccc(O)cc2S(=O)(=O)N1 (single isomer, unassigned) [Example 149] | 6.99 | – | – | 5.31 | – | – |
| O=C(NCC(c1ccccc1)c1ncc[nH]1)C1=Nc2ccccc2S(=O)(=O)N1 (single isomer, unassigned) [Example 152] | 4.32 | – | – | 4.28 | – | – |
| CNC(=O)Cn1cc(-c2ccc3c(c2)S(=O)(=O)NC(C(=O)NCC(c2ccccc2)c2ncco2)=N3)cn1 (stereo not drawn) [Example 9, 7-(1-(2-(Methylamino)-2-oxoethyl)-1H-pyrazol-4-yl)-N-(2-(oxazol-2-yl)-2-phenylethyl)-2H-benzo[e][1,2,4]thiadiazine-3-carboxamide 1,1-dioxide] | 7.38 | – | – | 4.91 | 4.70 | – |
| O=C(NCC(c1ccccc1)c1ncco1)C1=Nc2ccc(-c3cnn(CCO)c3)cc2S(=O)(=O)N1 (stereo not drawn) [Example 10, 7-(1-(2-Hydroxyethyl)-1H-pyrazol-4-yl)-N-(2-(oxazol-2-yl)-2-phenylethyl)-2H-benzo[e][1,2,4]thiadiazine-3-carboxamide 1,1-dioxide] | 7.04 | – | – | 4.10 | – | – |
| Nc1ccc2c(c1)S(=O)(=O)NC(C(=O)NCC(c1ccccc1)c1ncco1)=N2 (stereo not drawn) [Example 11, 7-Amino-N-(2-(oxazol-2-yl)-2-phenylethyl)-2H-benzo[e][1,2,4]thiadiazine-3-carboxamide 1,1-dioxide] | 5.74 | – | – | 4.93 | 5.60 | – |
| O=C(NCC(c1ccccc1)c1ccccc1)C1=Nc2ccc(Br)cc2S(=O)(=O)N1 [Example 15, 7-Bromo-N-(2,2-diphenylethyl)-2H-benzo[e][1,2,4]thiadiazine-3-carboxamide 1,1-dioxide] | 6.68 | 5.26 | 6.17 | 5.85 | – | 6.06 |
| Cc1ccc2c(c1)S(=O)(=O)NC(C(=O)NCC(c1ccccc1)c1ccccc1)=N2 [Example 16, N-(2,2-Diphenylethyl)-7-methyl-2H-benzo[e][1,2,4]thiadiazine-3-carboxamide 1,1-dioxide] | 5.86 | – | – | 4.62 | – | – |
| O=C(NCC(c1ccccc1)c1ccccc1)C1=Nc2ccc(C3CC3)cc2S(=O)(=O)N1 [Example 17, 7-Cyclopropyl-N-(2,2-diphenylethyl)-2H-benzo[e][1,2,4]thiadiazine-3-carboxamide 1,1-dioxide] | 5.48 | – | – | 4.29 | – | – |
| O=C(NCC(c1ccccc1)c1ccccc1)C1=Nc2ccc(-c3ccn[nH]3)cc2S(=O)(=O)N1 [Example 22, N-(2,2-diphenylethyl)-7-(1H-pyrazol-5-yl)-2H-benzo[e][1,2,4]thiadiazine-3-carboxamide 1,1-dioxide] | 5.70 | – | – | 4.14 | – | – |
| COC(=O)c1ccc2c(c1)S(=O)(=O)NC(C(=O)NCC(c1ccccc1)c1ncco1)=N2 (stereo not drawn) [Example 23, Methyl 3-((2-(oxazol-2-yl)-2-phenylethyl)carbamoyl)-2H-benzo[e][1,2,4]thiadiazine-7-carboxylate 1,1-dioxide] | 7.25 | 5.76 | 6.92 | 5.43 | – | 5.54 |
| NC(=O)c1ccc2c(c1)S(=O)(=O)NC(C(=O)NCC(c1ccccc1)c1ncco1)=N2 (stereo not drawn) [Example 27, N^3-(2-(Oxazol-2-yl)-2-phenylethyl)-2H-benzo[e][1,2,4]thiadiazine-3,7-dicarboxamide 1,1-dioxide] | 7.71 | – | – | 5.89 | – | – |
| O=C(NCCc1ccccc1Br)C1=Nc2ccccc2S(=O)(=O)N1 [Example 28, N-(2-Bromophenethyl)-2H-benzo[e][1,2,4]thiadiazine-3-carboxamide 1,1-dioxide] | 5.35 | – | – | 4.20 | 4.80 | – |
| O=C(NCC(c1ccccc1)c1ccccc1)C1=Nc2ccc(-c3cccnc3)cc2S(=O)(=O)N1 [Example 37, N-(2,2-diphenylethyl)-7-(pyridin-3-yl)-2H-benzo[e][1,2,4]thiadiazine-3-carboxamide 1,1-dioxide] | 6.11 | – | – | 4.36 | – | – |
| CNC(=O)C(CNC(=O)C1=Nc2ccccc2S(=O)(=O)N1)c1ccccc1 (stereo not drawn) [Example 45, N-(3-(methylamino)-3-oxo-2-phenylpropyl)-2H-benzo[e][1,2,4]thiadiazine-3-carboxamide 1,1-dioxide] | 4.45 | – | – | 3.96 | – | – |
| CCOC(=O)NC(CNC(=O)C1=Nc2ccccc2S(=O)(=O)N1)c1ccccc1 (stereo not drawn) [Example 49, Ethyl (2-(1,1-dioxido-2H-benzo[e][1,2,4]thiadiazine-3-carboxamido)-1-phenylethyl)carbamate] | 5.12 | < 3.90 | 5.77 | < 3.90 | – | 5.50 |
| O=C(NCC(OC(=O)N1CCC1)c1ccccc1)C1=Nc2ccccc2S(=O)(=O)N1 (stereo not drawn) [Example 51, 2-(1,1-dioxido-2H-benzo[e][1,2,4]thiadiazine-3-carboxamido)-1-phenylethyl azetidine-1-carboxylate] | 5.32 | – | – | 4.60 | – | – |
| O=C(NCC(c1ccccc1)n1ccnn1)C1=Nc2ccccc2S(=O)(=O)N1 (stereo not drawn) [Example 52, N-(2-phenyl-2-(1H-1,2,3-triazol-1-yl)ethyl)-2H-benzo[e][1,2,4]thiadiazine-3-carboxamide 1,1-dioxide] | 4.44 | – | – | – | – | – |
| Cc1coc(C(CNC(=O)C2=Nc3ccccc3S(=O)(=O)N2)c2ccccc2)n1 (stereo not drawn) [Example 53, N-(2-(4-methyloxazol-2-yl)-2-phenylethyl)-2H-benzo[e][1,2,4]thiadiazine-3-carboxamide 1,1-dioxide] | 6.56 | – | – | 4.70 | – | – |

| SMILES | pIC50 [1] | pIC50 [2] | pIC50 [3] | pIC50 [4] | pIC50 [5] | pIC50 [6] |
| --- | --- | --- | --- | --- | --- | --- |
| O=C(NCCc1cccc(F)c1)C1=Nc2ccccc2S(=O)(=O)N1 [Example 61] | < 3.90 | – | – | < 3.90 | – | – |
| COc1cccc(CCNC(=O)C2=Nc3ccccc3S(=O)(=O)N2)c1 [Example 62] | < 3.90 | – | – | < 3.90 | – | – |
| O=C(NCCc1ccccc1F)C1=Nc2ccccc2S(=O)(=O)N1 [Example 63] | < 3.90 | – | – | < 3.90 | – | – |
| COc1ccccc1CCNC(=O)C1=Nc2ccccc2S(=O)(=O)N1 [Example 64] | 3.99 | – | – | 4.04 | – | – |
| O=C(NCCc1ccccc1C(F)(F)F)C1=Nc2ccccc2S(=O)(=O)N1 [Example 65] | 4.27 | – | – | 4.07 | – | – |
| O=C(NCCc1ccc(F)cc1)C1=Nc2ccccc2S(=O)(=O)N1 [Example 66] | < 3.90 | – | – | < 3.90 | – | – |
| Cc1ccc(CCNC(=O)C2=Nc3ccccc3S(=O)(=O)N2)cc1 [Example 67] | < 3.90 | – | – | < 3.90 | – | – |
| O=C(NCCc1ccc(Cl)cc1)C1=Nc2ccccc2S(=O)(=O)N1 [Example 69] | < 3.90 | – | – | < 3.90 | – | – |
| O=C(NCCc1cccnc1)C1=Nc2ccccc2S(=O)(=O)N1 [Example 70] | < 3.90 | – | – | < 3.90 | – | – |
| COC(CNC(=O)C1=Nc2ccccc2S(=O)(=O)N1)c1ccccc1 (stereo not drawn) [Example 74] | 4.17 | – | – | < 3.90 | – | – |
| O=C(NCC(O)c1ccccc1)C1=Nc2ccccc2S(=O)(=O)N1 (stereo not drawn) [Example 76] | < 3.90 | – | – | < 3.90 | – | – |
| O=C(NCC(Oc1ccccc1)c1ccccc1)C1=Nc2ccccc2S(=O)(=O)N1 (stereo not drawn) [Example 77] | 4.45 | – | – | 4.06 | – | – |
| O=C(NCCc1ccccc1F)C1=Nc2ccc(Br)cc2S(=O)(=O)N1 [Example 81] | 5.79 | 5.18 | 6.26 | 5.31 | – | 5.34 |
| N#Cc1ccccc1CCNC(=O)C1=Nc2ccc(Br)cc2S(=O)(=O)N1 [Example 83] | 5.58 | – | – | 5.13 | – | – |
| O=C(NCC(c1ccccc1)c1cc2ccccc2[nH]1)C1=Nc2ccc(Br)cc2S(=O)(=O)N1 (stereo not drawn) [Example 85] | 5.09 | – | – | 5.22 | – | – |
| O=C(NCC(O)c1ccc(F)cc1)C1=Nc2ccc(I)cc2S(=O)(=O)N1 (stereo not drawn) [Example 127] | – | – | – | 4.21 | 4.46 | – |
| O=C(NCC(O)c1cccc(C(F)(F)F)c1)C1=Nc2ccc(I)cc2S(=O)(=O)N1 (stereo not drawn) [Example 128] | – | – | – | < 3.90 | < 3.90 | – |
| CCNC(=O)C(CNC(=O)C1=Nc2ccccc2S(=O)(=O)N1)c1ccccc1 (stereo not drawn) [Example 131] | 4.21 | – | – | < 3.90 | – | – |
| O=C(NCC(C(=O)N1CCCCC1)c1ccccc1)C1=Nc2ccccc2S(=O)(=O)N1 (stereo not drawn) [Example 133] | < 3.90 | – | – | < 3.90 | – | – |
| O=C(NCC(C(=O)O)c1ccccc1)C1=Nc2ccccc2S(=O)(=O)N1 (stereo not drawn) [Example 154, 3-(1,1-Dioxido-2H-benzo[e][1,2,4]thiadiazine-3-carboxamido)-2-phenylpropanoic Acid] | < 3.90 | – | – | < 3.90 | – | – |
